{"source": "patent US6713265B1", "about": "(Synaptic Pharmaceutical Corporation, priority 1999, dated 2004)", "tested_on": "NPY-induced feeding behavior", "assay": "NPY-induced food intake in satiated rats", "format": "in vivo, rat", "details": "compound 30 mg/kg i.p. then 300 pmole NPY i.c.v., 4 hours, mean ± S.E.M.", "experimental": "For these determinations food intake may be measured in normal satiated rats after intracerebroventricular application (i.c.v.) of NPY in the presence or absence of the test compound. Male Sprague Dawley rats (Ciba-Geigy AG, Sisseln, Switzerland) weighing between 180 g and 220 g are used for all experiments. The rats are individually housed in stainless steel cages and maintained on an 11:13 h light-dark cycle (lights off at 18:00 h) at a controlled temperature of 21-23° C. at all times. Water and food (NAFAG lab chow pellets NAFAG, Gossau, Switzerland) are available ad libidum.\nRats under pentobarbital anesthesia are stereotaxically implanted with a stainless steel guide cannula targeted at the right lateral ventricle. Stereotaxic coordinates, with the incisor bar set −2.0 mm below interaural line, are: −0.8 mm anterior and +1.3 mm lateral to bregma. The guide cannula is placed on the dura. Injection cannulas extend the guide cannulas −3.8 mm ventrally to the skull surface. Animals are allowed at least 4 days of recovery postoperatively before being used in the experiments. Cannula placement is checked postoperatively by testing all rats for their drinking response to a 50. ng intracerebroventricular (i.c.v.) injection of angiotensin II. Only rats which drink at least 2.5 ml of water within 30 min. after angiotensin II injection are used in the feeding studies.\nAll injections are made in the morning 2 hours after light onset. Peptides are injected in artificial cerebrospinal fluid (ACSF) in a volume of 5 μl. ACSF contains: NaCl 124 mM, KCl 3.75 mM, CaCl2 2.5 mM, MgSO4 2.0 mM, KH2PO4 0.22 mM, NaHCO3 26 mM and glucose 10 mM. Porcine-NPY (p-NPY) are dissolved in artificial cerebrospinal fluid (ACS). For i.c.v. injection the test compounds are preferably dissolved in DMSO/water (10%, v/v). The vehicle used for intraperitoneal (i.p.), subcutaneous (s.c.) or oral (p.o.) delivery of compounds is preferably water, physiological saline or DMSO/water (10% v/v), or cremophor/water (20% v/v), respectively.\nAnimals which are treated with both test compounds and porcine-NPY are treated first with the test compound.\nFood intake may be measured by placing preweighed pellets into the cages at the time of NPY injection. Pellets are then removed from the cage subsequently at each selected time point and replaced with a new set of preweighed pellets. The food intake of animals treated with test compound may be calculated as a percentage of the food intake of control animals i.e., animals treated with vehicle. Alternatively, food intake for each group of animals subjected to a particular experimental condition may be expressed as the mean±S.E.M. Statistical analysis is performed by analysis of variance using the Student-Newman-Keuls test.\nFood intake is reported as the mean±S.E.M. intake for a group of animals.", "data": [{"smiles": "Cl.O=S(=O)(NC[C@H]1CC[C@H](CNCC2CCc3ccccc3C2)CC1)c1cccc2ccccc12", "note": "(mixture of isomers) [Compound 19]", "values": [{"measurement": "Food intake, NPY + compound", "result": "1.5 ± 0.6", "unit": "g"}]}]}
